ChEMBL document CHEMBL1153463 (Bioorg Med Chem Lett, 2009)

What was measured:
[1] = system: Respiratory syncytial virus; assay: Antiviral activity against RSV assessed as inhibition of viral replication by cell based assay; format: functional, organism-based; conditions: human respiratory syncytial virus
[2] = Metabolic stability in human liver mocrosomes; conditions: liver microsomes
[3] = Permeability across human Caco-2 cells
[4] = system: Respiratory syncytial virus; assay: Antiviral activity against RSV infected in BALB/c mouse assessed as log reduction in viral titer; format: functional
[5] = Volume of distribution at steady state in rat at 1 mg/kg, iv; conditions: in vivo
in vivo [6] = conditions: rat, po, 5 mg/kg
in vivo [7] = conditions: rat, iv, 1 mg/kg
[8] = system: Respiratory syncytial virus; assay: Antiviral activity against RSV infected in BALB/c mouse assessed as reduction viral replication by RT-PCR; format: functional
in vivo [9] = conditions: rat, iv, 1 mg/kg; remark: listed apart in the source
in vivo [10] = conditions: rat, po, 5 mg/kg; remark: listed apart in the source

Structure (SMILES)	EC50 [1] [µM]	half-life [2] [min]	other results
COCCCn1c(CN2C(=O)/C(=N/OC)c3ccccc32)nc2ccccc21	0.03	16	–
CC(C)(C)O/N=C1/C(=O)N(Cc2nc3ccccc3n2CCCCO)c2ccccc21	1.13	–	–
CS(=O)(=O)CCCn1c(CN2C(=O)/C(=N/OCCF)c3ccncc32)nc2ccccc21	0.0125	> 100	Papp [3]: 1 ×10⁻⁶ cm/s
CS(=O)(=O)CCCn1c(CN2C(=O)/C(=N/OCc3ccccn3)c3ccncc32)nc2ccccc21	0.029	21	Papp [3]: 1.6 ×10⁻⁶ cm/s
COCCCn1c(CN2C(=O)/C(=N/OCS(=O)(=O)O)c3ccccc32)nc2ccccc21	0.046	–	–
C=CCCO/N=C1/C(=O)N(Cc2nc3ccccc3n2CCCOC)c2ccccc21	0.26	–	–
C=CCCCO/N=C1/C(=O)N(Cc2nc3ccccc3n2CCCOC)c2ccccc21	0.192	–	–
CS(=O)(=O)c1ccc(CO/N=C2/C(=O)N(Cc3nc4ccccc4n3CCCCO)c3ncccc32)cc1	0.0073	5.3	Papp [3]: 7.1 ×10⁻⁶ cm/s
O=C1/C(=N/OCCF)c2ccncc2N1Cc1nc2ccccc2n1CCCCO	0.0542	100	Papp [3]: 5.3 ×10⁻⁶ cm/s; deltaTCID50 [4]: 0.68
CC(C)CCn1c(CN2C(=O)/C(=N/OCc3ccc(C(=O)N(C)C)cc3)c3ccccc32)nc2ccccc21	0.009	–	–
CS(=O)(=O)c1ccc(CO/N=C2/C(=O)N(Cc3nc4ccccc4n3CCCCO)c3ccccc32)cc1	0.012	13	Papp [3]: 15.2 ×10⁻⁶ cm/s
COCCCn1c(CN2C(=O)/C(=N/OC(C)C)c3ccccc32)nc2ccccc21	0.257	–	–
COCCCn1c(CN2C(=O)/C(=N/OC3CCOCC3)c3ccccc32)nc2ccccc21	0.206	–	–
COCCCn1c(CN2C(=O)/C(=N/OCC(N)=O)c3ccccc32)nc2ccccc21	0.154	21	Papp [3]: 1.5 ×10⁻⁶ cm/s
COCCCn1c(CN2C(=O)/C(=N/OCCCN3CCCCC3)c3ccccc32)nc2ccccc21	0.29	–	–
COCCCn1c(CN2C(=O)/C(=N/OCc3ccncc3)c3ccccc32)nc2ccccc21	0.242	0.6	Papp [3]: 21.4 ×10⁻⁶ cm/s
CO/N=C1/C(=O)N(Cc2nc3ccccc3n2CCCCF)c2cnccc21	0.106	26	Papp [3]: 12.8 ×10⁻⁶ cm/s
CC(=O)OCCCCn1c(CN2C(=O)/C(=N/OCc3ccc(S(C)(=O)=O)cc3)c3ccccc32)nc2ccccc21	0.005	–	–
COCCCn1c(CN2C(=O)/C(=N/OCC(O)CC#N)c3ccccc32)nc2ccccc21 (centres undefined)	0.065	–	–
CCO/N=C1/C(=O)N(Cc2nc3ccccc3n2CCCOC)c2ccccc21	0.059	–	–
N#CCCCn1c(CN2C(=O)/C(=N/OCC(N)=O)c3ccccc32)nc2ccccc21	0.045	–	Papp [3]: 3 ×10⁻⁶ cm/s
CCCO/N=C1/C(=O)N(Cc2nc3ccccc3n2CCCOC)c2ccccc21	0.147	–	–
C=CCO/N=C1/C(=O)N(Cc2nc3ccccc3n2CCCS(C)(=O)=O)c2cnccc21	0.0124	–	–
COCCCn1c(CN2C(=O)/C(=[N+](/[O-])C3CCCCC3)c3ccccc32)nc2ccccc21	0.285	–	–
COCCCn1c(CN2C(=O)/C(=N/OC3CCCCC3)c3ccccc32)nc2ccccc21	0.652	–	–
CC(=O)OCCCCn1c(CN2C(=O)/C(=N/O)c3cccnc32)nc2ccccc21	0.0497	1.3	Papp [3]: 1.2 ×10⁻⁶ cm/s
C=CCO/N=C1/C(=O)N(Cc2nc3ccccc3n2CCCOC)c2ccccc21	0.428	–	–

Structure (SMILES)	EC50 [1] [µM]	half-life [2] [min]	other results
COCCCn1c(CN2C(=O)/C(=N/OCCCCOC(C)=O)c3ccccc32)nc2ccccc21	0.062	–	–
COCCCn1c(CN2C(=O)/C(=N/OCCN(C)C)c3ccccc32)nc2ccccc21	0.37	–	–
CO/N=C1/C(=O)N(Cc2nc3ccccc3n2CCCCO)c2cnccc21	0.0309	84	Papp [3]: 9.8 ×10⁻⁶ cm/s
COCCCn1c(CN2C(=O)/C(=N/OCCCC#N)c3ccccc32)nc2ccccc21	0.079	–	–
CC(=O)OCCCCn1c(CN2C(=O)/C(=N/OCCF)c3cccnc32)nc2ccccc21	0.0546	–	–
COCCCn1c(CN2C(=O)/C(=N/OCCN3CCCCC3)c3ccccc32)nc2ccccc21	0.682	–	–
COCCCn1c(CN2C(=O)/C(=N/OCc3ccccn3)c3ccccc32)nc2ccccc21	0.238	–	–
CC(C)CCn1c(CN2C(=O)/C(=N/Oc3ccccc3)c3ccccc32)nc2ccccc21	0.375	–	–
CC(C)CCn1c(CN2C(=O)/C(=N/OCc3ccc(C(=O)O)cc3)c3ccccc32)nc2ccccc21	0.016	–	–
CN(C)CCn1c(CN2C(=O)/C(=N/OCc3ccc(C(=O)O)cc3)c3ccccc32)nc2ccccc21	0.0165	–	–
CCC(CC)/[N+]([O-])=C1\C(=O)N(Cc2nc3ccccc3n2CCCOC)c2ccccc21	0.898	–	–
COCCCn1c(CN2C(=O)/C(=N/OCC(=O)O)c3ccccc32)nc2ccccc21	0.295	–	–
COCCCn1c(CN2C(=O)/C(=N/OC(CC(O)O)C(O)O)c3ccccc32)nc2ccccc21 (centres undefined)	0.019	–	–
CO/N=C1/C(=O)N(Cc2nc3ccccc3n2CCCCOC(C)=O)c2ccccc21	0.03	1.5	–
COCCCn1c(CN2C(=O)/C(=N/OCC(F)(F)F)c3ccccc32)nc2ccccc21	2.74	3.2	Papp [3]: 65.2 ×10⁻⁶ cm/s
O=C1/C(=N/OCCF)c2ccncc2N1Cc1nc2ccccc2n1CCCCF	0.0619	38	Papp [3]: 15.8 ×10⁻⁶ cm/s
COCCCn1c(CN2C(=O)/C(=N/OCC3CCC3)c3ccccc32)nc2ccccc21	0.246	–	–
N#CCCCn1c(CN2C(=O)/C(=N/OCC(F)(F)F)c3cccnc32)nc2ccccc21	0.112	48	Papp [3]: 18 ×10⁻⁶ cm/s
COCCCn1c(CN2C(=O)/C(=N/OCc3ccc(C(=O)N(C)C)cc3)c3ccccc32)nc2ccccc21	0.03	–	Papp [3]: 23.7 ×10⁻⁶ cm/s
O=C1/C(=N/O)c2ccncc2N1Cc1nc2ccccc2n1CCCCF	0.0179	100	Papp [3]: 2.7 ×10⁻⁶ cm/s
COC(=O)c1ccc(CO/N=C2/C(=O)N(Cc3nc4ccccc4n3CCN(C)C)c3ccccc32)cc1	0.023	0.6	–
CC(C)CCn1c(CN2C(=O)/C(=N/Oc3ccc(Br)cc3)c3ccccc32)nc2ccccc21	0.705	–	–
C#CCCCO/N=C1/C(=O)N(Cc2nc3ccccc3n2CCCOC)c2ccccc21	0.064	–	–
CCCCCO/N=C1/C(=O)N(Cc2nc3ccccc3n2CCCOC)c2ccccc21	0.188	–	–
CO/N=C1/C(=O)N(Cc2nc3ccccc3n2CCCC#N)c2ncccc21	0.0928	28	Papp [3]: 16 ×10⁻⁶ cm/s
COCCCn1c(CN2C(=O)/C(=[N+](/[O-])C(C)C)c3ccccc32)nc2ccccc21	0.23	–	–
COCCCn1c(CN2C(=O)/C(=N/OCC3CCCO3)c3ccccc32)nc2ccccc21 (centres undefined)	0.152	–	–

Structure (SMILES)	EC50 [1] [µM]	half-life [2] [min]	other results
CS(=O)(=O)CCCn1c(CN2C(=O)/C(=N/OCc3ccc(S(C)(=O)=O)cc3)c3cnccc32)nc2ccccc21	10.6	200	–
CO/N=C1/C(=O)N(Cc2nc3ccccc3n2CCCCO)c2ccccc21	0.01	–	–
O=C1/C(=N/OCCF)c2cccnc2N1Cc1nc2ccccc2n1CCCCO	0.0431	44	Papp [3]: 11.5 ×10⁻⁶ cm/s; deltaTCID50 [4]: 0.62
COC(=O)c1ccc(CO/N=C2/C(=O)N(Cc3nc4ccccc4n3CCC(C)C)c3ccccc32)cc1	0.023	0.6	–
COCCCn1c(CN2C(=O)/C(=N/OCCF)c3ccccc32)nc2ccccc21	0.071	–	–
O=C1/C(=N/OCC(F)(F)F)c2cccnc2N1Cc1nc2ccccc2n1CCCCO	0.0798	65	Papp [3]: 15.4 ×10⁻⁶ cm/s
CO/N=C1/C(=O)N(Cc2nc3ccccc3n2CCC(C)C)c2ccccc21	0.087	–	–
N#CCCCn1c(CN2C(=O)/C(=N/O)c3cccnc32)nc2ccccc21	0.0227	100	Papp [3]: 4.2 ×10⁻⁶ cm/s
COC(=O)c1ccc(CO/N=C2/C(=O)N(Cc3nc4ccccc4n3CCNS(C)(=O)=O)c3ccccc32)cc1	0.051	–	–
COCCCn1c(CN2C(=O)/C(=N/OCC3CC3)c3ccccc32)nc2ccccc21	0.096	–	–
COCCCn1c(CN2C(=O)/C(=N/OCCC3CCCCC3)c3ccccc32)nc2ccccc21	0.384	–	–
CCN(CC)C(=O)CO/N=C1/C(=O)N(Cc2nc3ccccc3n2CCCOC)c2ccccc21	0.026	–	–
CC(C)CCn1c(CN2C(=O)/C(=N/OCc3ccccc3)c3ccccc32)nc2ccccc21	0.202	–	–
N#CCCCn1c(CN2C(=O)/C(=N/OCCF)c3cccnc32)nc2ccccc21	0.0573	55	Papp [3]: 15.5 ×10⁻⁶ cm/s
COCCCn1c(CN2C(=O)/C(=N/OCc3cccnc3)c3ccccc32)nc2ccccc21	0.141	–	–
COCCCn1c(CN2C(=O)/C(=N/OCc3ccc(C(=O)OC)cc3)c3ccccc32)nc2ccccc21	0.05	–	–
CS(=O)(=O)c1ccc(CO/N=C2/C(=O)N(Cc3nc4ccccc4n3CCCC#N)c3ccncc32)cc1	10.2	29	–
CO/N=C1/C(=O)N(Cc2nc3ccccc3n2CCCCO)c2ncccc21	0.0312	31	Papp [3]: 14.1 ×10⁻⁶ cm/s
COCCCn1c(CN2C(=O)/C(=N/OCCCN(C)C)c3ccccc32)nc2ccccc21	0.24	–	–
CS(=O)(=O)CCCn1c(CN2C(=O)/C(=N/OCCF)c3cccnc32)nc2ccccc21	0.0292	> 100	Vd [5]: 1.8 L/kg; Cmax (in vivo [6]): 14 ng/mL; Papp [3]: 18.2 ×10⁻⁶ cm/s; clearance (in vivo [7]): 130 mL/min/kg; deltaTCID50 [4]: 1.05; Ratio [8]: 45; half-life (in vivo [9]): 12 min; bioavailability (in vivo [10]): 14%
CC(C)CCn1c(CN2C(=O)/C(=N/O)c3ccccc32)nc2ccccc21	0.01	–	–
N#CCCCn1c(CN2C(=O)/C(=N/OCC(F)(F)F)c3ccccc32)nc2ccccc21	0.066	18	–
CCCCO/N=C1/C(=O)N(Cc2nc3ccccc3n2CCCOC)c2ccccc21	0.261	–	–
COCCCn1c(CN2C(=O)/C(=N/OCCCF)c3ccccc32)nc2ccccc21	0.125	–	–
CCC(CC)O/N=C1/C(=O)N(Cc2nc3ccccc3n2CCCOC)c2ccccc21	0.935	–	–
